Paper PMC3471904 (PLoS ONE, 2012)
Values after ≈ are worked out from the molar mass of the structure shown. Values joined by “and” are separate entries in the source; they are usually repeats but may differ in a detail not shown here. Equal entries are not always repeated. “Also recorded” adds a separate entry of the source. Where two headings read alike, the source gives them in different places.

Columns and labels:
Wild-type F. novicida = assay: microbe, parasite or virus in culture; format: cell-based; details: for inhibition at 1000 µM: read-out: Inhibition of growth
F. novicida glpT mutant = format: cell-based
[1] = test system: intracellular F. novicida in A549 human alveolar epithelial cells; assay: microbe, parasite or virus in culture; format: cell-based
[2] = test system: intracellular F. novicida in RAW264.7 mouse macrophages; format: cell-based
[3] = test system: intracellular F. novicida glpT mutant in A549 cells; format: cell-based
F. novicida = test system: F. novicida; design: species or system Galleria mellonella; details: in vivo
[4] = test system: human lung epithelial A549 cells
[5] = test system: mouse macrophage RAW264.7 cells
DXR of E. coli = details: cited from earlier work
DXR from M. tuberculosis = details: read-out: half maximal activity against DXR; cited from earlier work
[6] = test system: M. tuberculosis whole cells; details: cited from earlier work
[7] = mouse, in vivo; cited from earlier work
F. tularensis LVS DXR = F. tularensis LVS DXR (Francisella tularensis subsp. holarctica, UniProt Q2A4P9); assay: biochemical
Sequence of F. tularensis LVS DXR (Q2A4P9 whole entry, looked up): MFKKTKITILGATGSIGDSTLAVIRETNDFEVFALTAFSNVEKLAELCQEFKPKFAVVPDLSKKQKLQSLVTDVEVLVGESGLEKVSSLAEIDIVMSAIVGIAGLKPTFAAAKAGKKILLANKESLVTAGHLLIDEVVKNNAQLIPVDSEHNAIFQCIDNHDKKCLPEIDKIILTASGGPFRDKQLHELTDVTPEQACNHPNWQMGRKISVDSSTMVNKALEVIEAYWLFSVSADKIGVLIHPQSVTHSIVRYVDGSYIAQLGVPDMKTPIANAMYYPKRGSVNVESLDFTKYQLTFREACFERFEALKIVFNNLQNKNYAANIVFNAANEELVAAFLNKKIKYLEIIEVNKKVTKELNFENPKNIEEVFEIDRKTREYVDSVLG

[8] = Francisella tularensis, A549, 20 h, read-out: Inhibition of intracellular growth

Structure (SMILES): CC(=O)N(O)CCCP(=O)(OC(C)OC(=O)c1ccccc1)OC(C)OC(=O)c1ccccc1 (stereo not drawn) [Compound 1]
- EC50 (Wild-type F. novicida): 45.2 ± 3.7 µM
- Percent inhibition of growth (OD600 treated vs untreated) (Wild-type F. novicida): 100%
- EC50 (Wild-type F. novicida; Francisella tularensis): 45 µM
- MIC (Wild-type F. novicida; Francisella tularensis, 48 h): 202 µM (≈ 99.7 µg/mL)
- MIC (F. novicida glpT mutant): 0.2 mM (≈ 98.7 µg/mL)
- Percent inhibition of growth (OD600 treated vs untreated) (F. novicida glpT mutant): 100%
- inhibition at 250 µM [1, 8]: 97 ± 0.8%
- inhibition at 400 µM [1, 8]: 99 ± 0.7%
- Intracellular F. novicida remaining [2]: 1.68±0.28 ×10^5 CFU/well and 0.92±0.18 ×10^5 CFU/well
- Effect on intracellular glpT mutant replication [3]: susceptible; also recorded: significant effect
- Intracellular glpT mutant remaining [3]: 22.32±2.23 ×10^3 CFU/well
- Mean time to death (F. novicida; 30 mg/kg): 93 h
- Cytotoxicity by LDH release [4]: did not induce cytotoxicity
- Cytotoxicity by LDH release [5]: did not induce cytotoxicity

Structure (SMILES): CCOP(=O)(CCCN(O)C(C)=O)OCC [Compound 3]
- Inhibition of F. novicida (result in words) (Wild-type F. novicida): did not effectively inhibit; also recorded: ineffective

Structure (SMILES): CCCCCCOP(=O)(CCCN(O)C(C)=O)OCCCCCC [Compound 2]
- Percent inhibition of growth (OD600 treated vs untreated) (Wild-type F. novicida): 27±14%
- EC50 (Wild-type F. novicida; Francisella tularensis): 481 ± 44 µM
- MIC (Wild-type F. novicida; Francisella tularensis): 1100 µM (≈ 402 µg/mL)
- MIC (Wild-type F. novicida; Francisella tularensis, 48 h): 1090 µM (≈ 400 µg/mL)
- MIC (F. novicida glpT mutant): >1 mM
- Percent inhibition of growth (OD600 treated vs untreated) (F. novicida glpT mutant): 11±7%

Structure (SMILES): O=C(O)c1cn(C2CC2)c2cc(N3CCNCC3)c(F)cc2c1=O [Ciprofloxacin]
- Mean time to death (F. novicida; 20 mg/kg): 103 h

Structure (SMILES): O=CN(O)CCCP(=O)(O)O [Fosmidomycin]
- EC50 (Wild-type F. novicida): 3.6 ± 0.2 µM
- Percent inhibition of growth (OD600 treated vs untreated) (Wild-type F. novicida): 99.6±0.2%
- EC50 (Wild-type F. novicida; Francisella tularensis): 3.5 µM
- MIC (Wild-type F. novicida; Francisella tularensis, 48 h): 136 µM (≈ 24.9 µg/mL)
- inhibition at 1000 µM (Wild-type F. novicida; Francisella tularensis): 100%
- Inhibition of growth (F. novicida glpT mutant): not able to inhibit F. novicida glpT growth at all; also recorded: completely resistant
- MIC (F. novicida glpT mutant): >1 mM
- Percent inhibition of growth (OD600 treated vs untreated) (F. novicida glpT mutant): did not inhibit the growth of the glpT mutant at all
- Intracellular F. novicida remaining [1]: 0.07±0.03 ×10^3 CFU/well
- Reduction of intracellular bacteria [1]: 2 log
- inhibition at 250 µM [1, 8]: 98 ± 0.7%
- Intracellular F. novicida remaining [2]: 0.93±0.20 ×10^5 CFU/well
- Effect on intracellular glpT mutant replication [3]: not affected; also recorded: no effect
- Mean time to death (F. novicida; 30 mg/kg): 102 h
- Cytotoxicity by LDH release [4]: did not induce cytotoxicity
- Cytotoxicity by LDH release [5]: did not induce cytotoxicity
- IC50 (DXR of E. coli; read-out: half maximal activity against DXR): 35 nM
- IC50 (DXR from M. tuberculosis): 310 nM
- Effect on whole cells [6]: no effect on whole cells
- Well tolerated dose [7]: up to 300 mg/kg

Structure (SMILES): CC(=O)N(O)CCCP(=O)(O)O [FR900098]
- EC50 (Wild-type F. novicida): 23.2 ± 1.2 µM
- Percent inhibition of growth (OD600 treated vs untreated) (Wild-type F. novicida): 97.1±0.8%
- EC50 (Wild-type F. novicida; Francisella tularensis): 23 µM
- MIC (Wild-type F. novicida; Francisella tularensis, 48 h): 254 µM (≈ 50.1 µg/mL)
- inhibition at 1000 µM (Wild-type F. novicida; Francisella tularensis): 100%
- MIC (F. novicida glpT mutant): >1 mM
- Percent inhibition of growth (OD600 treated vs untreated) (F. novicida glpT mutant): 55±5%
- IC50 (F. tularensis LVS DXR): 230 nM
- Inhibition of intracellular growth [1]: 85±10%
- Intracellular F. novicida remaining [1]: 0.56±0.26 ×10^3 CFU/well and 0.59±0.40 ×10^3 CFU/well
- inhibition at 250 µM [1, 8]: 86 ± 6%
- Effect on intracellular glpT mutant replication [3]: not affected; also recorded: no effect
- Mean time to death (F. novicida; 30 mg/kg): 84 h
- Cytotoxicity by LDH release [4]: did not induce cytotoxicity
- Cytotoxicity by LDH release [5]: did not induce cytotoxicity
- IC50 (DXR of E. coli; read-out: IC50 against the DXR of E. coli): 62 nM
- Effect on whole cells [6]: no effect on whole cells
- Well tolerated dose [7]: up to 300 mg/kg
